By melting point is commonly meant the temperature, or range, at which the solid turns liquid. Consider `CCCCOP(=O)(O)OCCCC`, for which the melting point was -13 °C.

In the case of `OCc1cc(C(F)(F)F)ccc1Br`, the melting point was found to be 72 °C.

The compound `COC(=O)c1cscc1OC` yielded a melting point of 70 to 71 °C.

For the compound `CS(=O)(=O)c1ccc(Cl)cc1`, the melting point worked out at 97 °C.

For the compound `CCCCCCSc1nnc(S)s1`, the melting point came out at 75 °C.

Take `Nc1cc(F)c(F)c(Br)c1`: the melting point was determined as 68 °C.

Regarding `CC1(C)C(C=C(Cl)Cl)C1C(=O)OCc1c(F)c(F)cc(F)c1F` (centres undefined), the melting point stood at 32 °C.

`CCCCCCCCCCCCCCCCC#N` came in with a melting point of 34 °C.

`O=C(NC(=O)c1c(F)cccc1F)Nc1ccc(OC(F)(F)C(F)OC(F)(F)F)c(Cl)c1` (centres undefined) gave a melting point of 178 °C.

For `Cc1cc(Br)c(N)c([N+](=O)[O-])c1`, the melting point was in the range of 58 to 59 °C.

The compound `O=C(O)c1ccccc1-c1ccco1` yielded a melting point of 87 °C.

Regarding `CCOc1cc(C(=O)O)cc(OCC)c1OCC`, the melting point worked out at 112 °C.

`COc1ccc(C=NN=C2NC(=O)C(=Cc3ccccc3)S2)cc1` returned a melting point of 255 to 257 °C.

`COC(=O)CCc1ccc2c(c1)NC(=O)CC2` displayed a melting point of 143 °C.

Compound `CCCCOC(=O)c1ccccc1C(=O)OCc1ccccc1` displayed a melting point of 230 °C.

The compound `Nc1cccc([N+](=O)[O-])c1N` gave a melting point of 158 °C.

For `CC12CCC3C(=CCc4cc(O)ccc43)C1CCC2=O` (centres undefined), the melting point is 239 °C.

Regarding `COc1c(OC)c(OC(C)=O)c2c(OC)cccc2c1OC(C)=O`, the melting point is 69.5 °C.

Consider `O=[N+]([O-])c1ccc(SSc2ccc([N+](=O)[O-])cc2)cc1`, for which the melting point amounted to 182 °C.

As to `O=C(O)C=CC(=O)Nc1ccc(Cl)cc1Cl`, the melting point worked out at 178 °C.

For `CC(=O)c1sc(-c2ccccc2)cc1N`, the melting point was in the range of 135 to 137 °C.

On to `O=C(OCc1ccccc1)C(=O)OCc1ccccc1`, for which the melting point lay in the range of 80 to 82 °C.

In turn, `COc1ccccc1NC(N)=S` returned a melting point of 156 °C.

As for `CC1CC2=CC(=O)CCC2(C)C2CCC3(C)C(CCC3(C)O)C12` (centres undefined), the melting point was 164 °C.

For `CC(=O)Oc1nc(CCc2ccccc2)nn1-c1ccccc1`, the melting point worked out at 109 °C.

On to `Cn1cncc1C(=O)NN`, for which the melting point lay within 186 to 187 °C.

`O=C1c2ccccc2C(=O)c2cc(Br)ccc21` had a melting point of 206 °C.

Compound `O=C(O)C12CC3CC(CC(Cl)(C3)C1)C2` showed a melting point of 136 to 140 °C.

Compound `CC(=O)c1cc(C)cc([N+](=O)[O-])c1O` displayed a melting point of 135 °C.

In the case of `CCC(=O)Nc1c(C(=O)Cc2c(C)cc(C)cc2C)oc2ccccc12`, the melting point fell in the range of 147 to 148 °C.

`Cc1ccc([N+](=O)[O-])c(Cl)c1` showed a melting point of 24 °C.

Compound `O=C(Oc1cccc(N=[N+]([O-])c2cccc(OC(=O)c3ccccc3)c2)c1)c1ccccc1` displayed a melting point of 175 °C.

`O=C(CBr)c1cc(Br)cc2c1OCC2` gave a melting point of 132 to 134 °C.

`COC(=O)c1cc2cc(S(C)(=O)=O)ccc2[nH]1`: the melting point was 175 to 179 °C.

`O=[N+]([O-])c1ccc(S(=O)(=O)OCc2cccc(OS(=O)(=O)c3ccc([N+](=O)[O-])cc3)c2)cc1` displayed a melting point of 199 to 202 °C.

For the compound `CSC(SC)=C(C(C)=O)C(C)=O`, the melting point is 61 °C.

The compound `O=C(CBr)c1csc2ccccc12` registered a melting point of 138 to 139 °C.

`CC(C)(C)OC(=O)C=P(c1ccccc1)(c1ccccc1)c1ccccc1` returned a melting point of 146 to 151 °C.

As to `CSCCC(NC(=O)c1cccnc1SC)C(=O)O` (centres undefined), the melting point was 157 to 161 °C.

The compound `C=CCN(CC=C)C(=O)COC(=O)c1ccccc1` yielded a melting point of 42.5 °C.

On to `O=C(O)c1cccc(-n2cccc2)c1`, for which the melting point lay within 180 to 181 °C.

`CC1CCC(C(C)C)C(OC(=O)C(Cc2ccccc2)Cc2ccccc2)C1` (centres undefined) gave a melting point of 43 °C.

`CCCCCC(O)CCCC` (centres undefined) registered a melting point of 8 °C.

The compound `Fc1ccc(OCC2CO2)cc1` (centres undefined) gave a melting point of 19.5 °C.

`Cc1cc(=S)cc(C)o1` had a melting point of 142 °C.

`Cc1nnc(-c2ccccc2)c2noc(C)c12` displayed a melting point of 180 °C.

As to `CCOC(=O)c1ccc(F)cc1F`, the melting point is 65 to 67 °C.

In turn, `O=S(=O)(Cl)Cc1ccccc1Br` registered a melting point of 78 to 80 °C.

For `O=C1OC(OC(=O)C(F)(F)F)c2ccccc21` (centres undefined), the melting point was 58 °C.

For the compound `C[Si]1(C)O[Si](C)(C)O[Si](C)(C)O[Si](C)(C)O[Si](C)(C)O[Si](C)(C)O[Si](C)(C)O[Si](C)(C)O1`, the melting point amounted to 31.5 °C.

On to `N#C/C(=N\Nc1ccc(O)cc1)c1nc2ccccc2[nH]1`, for which the melting point was determined as 255 °C.

`Oc1ccc2c(O)cccc2c1`: the melting point worked out at 138 °C.

`O=C(c1ccccc1)c1ccc(N2CCOCC2)cc1` came in with a melting point of 142 to 145 °C.

Regarding `C1CC2CCCC(C1)C2`, the melting point was found to be 146 °C.

With `Cc1cc(C)c(OC(=O)C(F)(F)F)cc1OC(=O)C(F)(F)F`, the melting point came to 121 °C.

For `OC1Cc2ccccc21` (centres undefined), the melting point was in the range of 58 to 59 °C.

Consider `COc1cccc(N)c1C(=O)O`, for which the melting point worked out at 85 °C.

As for `CC(C)(C)OC(=O)N[C@H](CC#N)Cc1ccccc1`, the melting point lay within 120 to 125 °C.

Turning to `O=C(CCl)c1ccc(F)cc1`, the melting point was 48 °C.

`Oc1ccc(C(F)(F)F)cn1` displayed a melting point of 145 to 148 °C.

The compound `NC(=O)C(F)(F)Cl` had a melting point of 82 °C.

Regarding `CN(N=O)C(N)=O`, the melting point was 121 °C.

`O=C(C1=NOC2C(=O)N(c3cc(Cl)ccc3Cl)C(=O)C12)c1cccs1` (centres undefined) gave a melting point of 221 °C.

As for `C#CC1(O)CCC2C3CC=C4C=C(C(C)(C)C(=O)O)CCC4(C)C3CCC21C` (centres undefined), the melting point was 257 to 260 °C.

The compound `CCCCCCCOCC` had a melting point of -68.3 °C.

In the case of `CC(C)N1CSc2nnc(-c3cccnc3)n2C1`, the melting point stood at 289 °C.

In turn, `CC12CCC(C(=O)/C(=C\c3ccccc3[N+](=O)[O-])C1=O)C2(C)C` (centres undefined) displayed a melting point of 140 to 141 °C.

In turn, `Nc1cccc(Cc2cccc(N)c2)c1` came in with a melting point of 81.5 °C.

`COP(=O)(OC)OC=C(Cl)Cl` displayed a melting point of -60 °C.

Compound `OC1OCCCC1(Cl)Cl` (centres undefined) yielded a melting point of 87 to 90 °C.

The compound `COC(=O)c1cc(I)ccc1O` had a melting point of 77 °C.

Turning to `CN(NC=O)c1ccccc1`, the melting point came out at 47 °C.

With `CCN(CC(=O)O)C(=O)OC(C)(C)C`, the melting point was 88 °C.

With `O=C(O)C[C@@H](NC(=O)OCC1c2ccccc2-c2ccccc21)c1ccc(Br)cc1`, the melting point is 192 °C.

`OCCN(CCO)CCc1ccc(CSc2ccccc2)cc1` gave a melting point of 80 °C.

As for `c1ccc(P(c2ccccc2)c2ccccc2Oc2ccccc2P(c2ccccc2)c2ccccc2)cc1`, the melting point lay within 184 to 187 °C.

`CCc1ccc(C(C)=O)cc1` yielded a melting point of -20.6 °C.

Compound `C=Cc1ccc(C(N)=O)cc1` showed a melting point of 170 °C.

As for `N#CCON=C(C#N)c1ccccc1`, the melting point was found to be 55 °C.

Take `O=C(O)C=Cc1cccc([N+](=O)[O-])c1`: the melting point was 202 to 204 °C.

The compound `O=[N+]([O-])c1ccc(-c2ccc(/N=N/c3ccccc3)cc2)cc1` showed a melting point of 178 to 179 °C.

`CC(=O)COc1c([N+](=O)[O-])ccc(F)c1F`: the melting point was 40 to 45 °C.

As for `O=C(O)c1cccc(N2CCOCC2)c1`, the melting point lay within 161 to 163 °C.

With `CCOC(=O)NC(N)=O`, the melting point worked out at 196 °C.

For the compound `CCCCCCCCCCOc1c(OC)cc(C(N)=O)cc1OC`, the melting point is 122 °C.

For the compound `Fc1ccc2ccccc2c1`, the melting point was 61 °C.

The compound `O=C1CC=CCC(=O)CC=CC1` had a melting point of 184 °C.

Regarding `O=C(O)CCSC1=CC(=O)C(SCCC(=O)O)=CC1=O`, the melting point fell in the range of 230 to 236 °C.

Regarding `CC(=O)OC1CCC2(C)C(CCC3C4CCC(=NNS(=O)(=O)c5ccc(C)cc5)C4(C)CCC32)C1` (centres undefined), the melting point is 222 °C.

Take `OC1CCC(O)CC1` (centres undefined): the melting point was found to be 143 °C.

With `COC1=C/C(=N\O)C2(C)CCC1C2(C)C` (centres undefined), the melting point came to 185 °C.

`CCC(=C(CC)c1ccc(OC)cc1)c1ccc(OC)cc1`: the melting point came to 124 °C.

`O=C1CN2CCOC2(c2ccccc2F)c2cc(Br)ccc2N1` (centres undefined) had a melting point of 185 °C.

For the compound `Cc1cncc(N2CCC(C(=O)Oc3c(F)c(F)c(F)c(F)c3F)CC2)n1`, the melting point lay in the range of 94 to 95 °C.

Compound `COc1ccc2[nH]cc(CC(N)C(=O)O)c2c1` (racemic) came in with a melting point of 258 to 261 °C.

`CC1(C)C(=O)N(Br)C(=O)N1Cl` displayed a melting point of 164 °C.

Regarding `O=C(O)CCc1ccccc1`, the melting point came out at 107 °C.

In turn, `CCCCC#CCCCC` came in with a melting point of -73 °C.

The compound `OOC1CCCCC1` came in with a melting point of -20 °C.

`CC1=CCC(C)C1=NNc1ccc([N+](=O)[O-])cc1[N+](=O)[O-]` (centres undefined) returned a melting point of 198 °C.

Consider `CC(OC(=O)c1ccc([N+](=O)[O-])cc1)c1cccc(C(C)OC(=O)c2ccc([N+](=O)[O-])cc2)c1` (centres undefined), for which the melting point was 139 to 145 °C.

As to `O=C(CCc1ccccc1)CCc1ccccc1`, the melting point came to 13.5 °C.

In the case of `CC(=O)OC1(C(C)=O)CCC2C3CCC4=CC(=O)CCC4(C)C3(F)C(O)CC21C` (centres undefined), the melting point came out at 268 °C.

As for `O=C(Nc1cc(Cl)ccc1Cl)C(C(F)(F)F)C(F)(F)F`, the melting point was found to be 211 °C.

Regarding `C#CC(C)(C)Cl`, the melting point is -61 °C.

`C[Si](C)(Cl)CC[Si](C)(C)Cl` came in with a melting point of 37 °C.

Compound `CCCCCCCCn1c(=O)c2cc3c(OC)c4cc5c(=O)n(CCCCCCCC)c(=O)c5cc4c(OC)c3cc2c1=O` registered a melting point of 238 °C.

Turning to `OCc1cc(C(O)CNCCCCCCOCCCCc2ccccc2)ccc1O` (centres undefined), the melting point was 75.8 °C.

As to `Clc1cc(Br)ccc1I`, the melting point fell in the range of 35 to 37 °C.

(Values after a melting point compilation (Tetko et al.).)
